From US20240398805A1, “QUINAZOLINE DERIVED COMPOUNDS AS EGFR INHIBITORS AND THEIR USES THEREOF” (ACCUTAR BIOTECHNOLOGY INC., priority 2021, published 2024)

Key:
Assay type in all cases: cell-based
[1] = test system: HCC827 cells; assay: Cell growth inhibition (CellTiter-Glo, 3 days) in HCC827; details: Homo sapiens, 72 h, 3 days after administration
Description: (§1) 2. Cell Growth Inhibition for HCC827, HCC827-SVD, HCC827-ASV, HCC827-YVMA and A431.
(§2) HCC827(ATCC), HCC827-SVD, HCC827-ASV, HCC827-YVMA were seeded in 96-well plates at 5000 cells/well in 90 μl of RPMI growth medium containing 10% FBS and 1% Penicillin Streptomycin. A431 (ATCC) cells were seed in 96-well plates at 5000 cells/well in 90 μl of DMEM growth medium containing 10% FBS and 1% Penicillin Streptomycin. Cells were incubated at 3700 overnight. The following day, the test compound was administered to the cells by using 1 Ox compound stock solution prepared in growth medium at various concentrations. After administration of the compound, cells were then incubated at 3700 for 3 days. Before CeIlTiter-Glo assay, the plates were equilibrated at room temperature for approximately 10 minutes. 100 ul of CelTiter-Glo® Reagent (Promega) was added to each well. The plates were then incubated at room temperature for 10 minutes and luminescence was recorded by EnSpire plate reader (PerkinElmer).

[2] = test system: HCC827-SVD cells (human EGFR exon 20 insertion mutant D770_N771 insSVD); assay: Cell growth inhibition (CellTiter-Glo, 3 days) in HCC827-SVD; details: 72 h, 3 days after administration
Description: (§3) 1. Preparation of HCC827-SVD, HCC827-ASV and HCC827-YVMA Cell Lines
HCC827-SVD cell line were generated by first transducing HCC827 cells (ATCC) with lentiviral particles expressing codon-optimized human EGFR exon 20 insertion mutant D770_N771 insSVD, and then selecting under 5 μg/ml purimycin treatment for a week.
The resulting cells were further transduced with lentiviral particles carrying EGFR sgRNA and CAS9 to knockout the endogenous alleles of EGFR, and then selected under 500 μg/ml hygromycin B treatment for two weeks. Single clone was subsequently generated by limiting dilution approach. Endogenous EGFR knockout was confirmed by Sanger sequencing of cell genomic DNA and expression of exogenous mutant EGFR was verified by Western blot analysis.
as §1, §2

[3] = test system: HCC827-ASV cells (human EGFR exon 20 insertion mutant A769_D770insASV); assay: Cell growth inhibition (CellTiter-Glo, 3 days) in HCC827-ASV; details: 72 h, 3 days after administration
From the text: as §3
(§4) HCC827-ASV and HCC827-YVMA cell lines were generated in the similar approach as HCC827-SVD except that HCC827 cells (ATCC) were first transduced with lentiviral particles expressing codon-optimized human EGFR exon 20 insertion mutant A769_D770insASV and human ERBB2 exon20 insertion mutant A775_G776ins YVMA, respectively.
as §1, §2

[4] = test system: HCC827-YVMA cells (human ERBB2 exon20 insertion mutant A775_G776ins YVMA); assay: Cell growth inhibition (CellTiter-Glo, 3 days) in HCC827-YVMA; details: 72 h, 3 days after administration
From the text: as §3, §4, §1, §2

[5] = test system: A431 cells; assay: Cell growth inhibition (CellTiter-Glo, 3 days) in A431; details: Homo sapiens, A-431, 72 h, 3 days after administration
Description: as §1, §2

Row | Compound | GI50 [1] | GI50 [2] | GI50 [3] | GI50 [4] | GI50 [5]
1 | C=CC(=O)N1CCC(Nc2cc3c(Nc4ccc(Oc5ccn(-c6nc(OC)nc(OC)n6)n5)cc4F)ncnc3cc2OC)CC1 [Compound 31, 1-(4-((4-((4-((1-(4,6-dimethoxy-1,3,5-triazin-2-yl)-1H-pyrazol-3-yl)oxy)-2-fluorophenyl)amino)-7-methoxyquinazolin-6-yl)amino)piperidin-1-yl)prop-2-en-1-one] | < 30 nM | 30 to 60 nM | 30 to 60 nM | < 30 nM | < 30 nM
2 | C=CC(=O)N1CCC(Nc2cc3c(Nc4ccc(Oc5ccnc(-c6cnn(C)c6)c5)cc4F)ncnc3cc2OC)CC1 [Compound 34, 1-(4-((4-((2-fluoro-4-((2-(1-methyl-1H-pyrazol-4-yl)pyridin-4-yl)oxy)phenyl)amino)-7-methoxyquinazolin-6-yl)amino)piperidin-1-yl)prop-2-en-1-one] | 600 to 1000 nM | 30 to 60 nM | 60 to 100 nM | 60 to 100 nM | ≥ 1000 nM
3 | C=CC(=O)N1CCC(Nc2cc3c(Nc4ccc(Oc5ccnc(N6CCOCC6)c5)cc4F)ncnc3cc2OC)CC1 [Compound 35, 1-(4-((4-((2-fluoro-4-((2-morpholinopyridin-4-yl)oxy)phenyl)amino)-7-methoxyquinazolin-6-yl)amino)piperidin-1-yl)prop-2-en-1-one] | 100 to 300 nM | < 30 nM | < 30 nM | < 30 nM | ≥ 1000 nM
4 | C=CC(=O)N1CCC(Nc2cc3c(Nc4ccc(Oc5ccnc(-c6cscn6)c5)cc4F)ncnc3cc2OC)CC1 [Compound 41, 1-(4-((4-((2-fluoro-4-((2-(thiazol-4-yl)pyridin-4-yl)oxy)phenyl)amino)-7-methoxyquinazolin-6-yl)amino)piperidin-1-yl)prop-2-en-1-one] | 60 to 100 nM | < 30 nM | < 30 nM | < 30 nM | 300 to 600 nM
5 | C=CC(=O)N1CCC(Nc2cc3c(Nc4ccc(Oc5cc(-c6nc(C)no6)ccn5)cc4F)ncnc3cc2OC)CC1 [Compound 44, 1-(4-((4-((2-fluoro-4-((4-(3-methyl-1,2,4-oxadiazol-5-yl)pyridin-2-yl)oxy)phenyl)amino)-7-methoxyquinazolin-6-yl)amino)piperidin-1-yl)prop-2-en-1-one] | 30 to 60 nM | 30 to 60 nM | 30 to 60 nM | < 30 nM | 100 to 300 nM
6 | C=CC(=O)N1CCC(Nc2cc3c(Nc4ccc(Oc5cc(-c6ccc(C)nc6)ccn5)cc4F)ncnc3cc2OC)CC1 [Compound 46, 1-[4-({4-[(2-fluoro-4-{[4-(6-methylpyridin-3-yl)pyridin-2-yl]oxy}phenyl)amino]-7-methoxyquinazolin-6-yl}amino)piperidin-1-yl]prop-2-en-1-one] | 100 to 300 nM | 30 to 60 nM | 60 to 100 nM | < 30 nM | ≥ 1000 nM
7 | C=CC(=O)N1CCC(Nc2cc3c(Nc4ccc(Oc5nc(-c6cnc(C7CC7)nc6)cs5)cc4F)ncnc3cc2OC)CC1 [Compound 51, 1-(4-((4-((4-((4-(2-cyclopropylpyrimidin-5-yl)thiazol-2-yl)oxy)-2-fluorophenyl)amino)-7-methoxyquinazolin-6-yl)amino)piperidin-1-yl)prop-2-en-1-one] | 30 to 60 nM | 30 to 60 nM | 30 to 60 nM | 30 to 60 nM | 100 to 300 nM
8 | C=CC(=O)N1CC2(CC(Oc3cc4c(Nc5ccc(Oc6ccn(-c7cnc(OC)nc7)n6)cc5F)ncnc4cc3OC)C2)C1 [Compound 79, 1-(6-((4-((2-fluoro-4-((1-(2-methoxypyrimidin-5-yl)-1H-pyrazol-3-yl)oxy)phenyl)amino)-7-methoxyquinazolin-6-yl)oxy)-2-azaspiro [3.3]heptan-2-yl) prop-2-en-1-one] | ≥ 1000 nM | ≥ 1000 nM | ≥ 1000 nM | ≥ 1000 nM | ≥ 1000 nM
9 | C=CC(=O)N1CC[C@@H](Oc2cc3c(Nc4ccc(Oc5ccn(-c6cnc(OC)nc6)n5)cc4F)ncnc3cc2OC)C1 [Compound 80, (R)-1-(3-((4-((2-fluoro-4-((1-(2-methoxypyrimidin-5-yl)-1H-pyrazol-3-yl)oxy)phenyl)amino)-7-methoxyquinazolin-6-yl)oxy)pyrrolidin-1-yl) prop-2-en-1-one] | ≥ 1000 nM | ≥ 1000 nM | ≥ 1000 nM | ≥ 1000 nM | ≥ 1000 nM
10 | C=CC(=O)N1CC2(CC(Nc3cc4c(Nc5ccc(Oc6ccn(-c7cnc(OC)nc7)n6)cc5F)ncnc4cc3OC)C2)C1 [Compound 84, 1-(6-((4-((2-fluoro-4-((1-(2-methoxypyrimidin-5-yl)-1H-pyrazol-3-yl)oxy)phenyl)amino)-7-methoxyquinazolin-6-yl)amino)-2-azaspiro[3.3]heptan-2-yl)prop-2-en-1-one] | ≥ 1000 nM | ≥ 1000 nM | ≥ 1000 nM | ≥ 1000 nM | ≥ 1000 nM
11 | [2H]C([2H])([2H])Oc1cc2ncnc(Nc3ccc(Oc4nc(-c5ccc(C)nc5)cs4)cc3F)c2cc1NC1CCN(C(=O)C=C)CC1 [Compound 87, 1-(4-((4-((2-fluoro-4-((4-(6-methylpyridin-3-yl)thiazol-2-yl)oxy)phenyl)amino)-7-(methoxy-d3)quinazolin-6-yl)amino)piperidin-1-yl)prop-2-en-1-one] | 100 to 300 nM | 30 to 60 nM | 60 to 100 nM | 30 to 60 nM | 100 to 300 nM
12 | C=CC(=O)N1CCC(Nc2cc3c(Nc4ccc(Oc5ccnc(-c6csc(C)n6)c5)cc4F)ncnc3cc2OC)CC1 [Compound 97, 1-(4-((4-((2-fluoro-4-((2-(2-methylthiazol-4-yl)pyridin-4-yl)oxy)phenyl)amino)-7-methoxyquinazolin-6-yl)amino)piperidin-1-yl) prop-2-en-1-one] | 30 to 60 nM | < 30 nM | < 30 nM | < 30 nM | 300 to 600 nM
13 | C=CC(=O)N1CCC(Nc2cc3c(Nc4ccc(Oc5ccnc(N6CCCCC6)c5)cc4F)ncnc3cc2OC)CC1 [Compound 100, 1-(4-((4-((2-fluoro-4-((2-(piperidin-1-yl)pyridin-4-yl)oxy)phenyl)amino)-7-methoxyquinazolin-6-yl)amino)piperidin-1-yl)prop-2-en-1-one] | 100 to 300 nM | 100 to 300 nM | 100 to 300 nM | 100 to 300 nM | 300 to 600 nM
14 | C=CC(=O)N1CCC(Nc2cc3c(Nc4ccc(Oc5ccnc(N6C[C@@H](C)O[C@@H](C)C6)c5)cc4F)ncnc3cc2OC)CC1 [Compound 101, 1-(4-((4-((4-((2-((2R,6S)-2,6-dimethylmorpholino)pyridin-4-yl)oxy)-2-fluorophenyl)amino)-7-methoxyquinazolin-6-yl)amino)piperidin-1-yl)prop-2-en-1-one] | 60 to 100 nM | < 30 nM | < 30 nM | < 30 nM | ≥ 1000 nM
15 | C=CC(=O)N1CCC(Nc2cc3c(Nc4ccc(Oc5ccnc(N6CCC(C(F)(F)F)C6)c5)cc4F)ncnc3cc2OC)CC1 (stereo not shown) [Compound 150, 1-(4-((4-((2-fluoro-4-((2-(3-(trifluoromethyl)pyrrolidin-1-yl)pyridin-4-yl)oxy)phenyl)amino)-7-methoxyquinazolin-6-yl)amino)piperidin-1-yl)prop-2-en-1-one] | < 30 nM | < 30 nM | < 30 nM | < 30 nM | 100 to 300 nM
16 | C=CC(=O)N1CCC(Nc2cc3c(Nc4ccc(Oc5ccnc(N6CCC(C#N)C6)c5)cc4F)ncnc3cc2OC)CC1 (stereo not shown) [Compound 151, 1-(4-(4-((6-((1-acryloylpiperidin-4-yl)amino)-7-methoxyquinazolin-4-yl)amino)-3-fluorophenoxy)pyridin-2-yl)pyrrolidine-3-carbonitrile] | 100 to 300 nM | < 30 nM | < 30 nM | < 30 nM | 600 to 1000 nM
17 | C=CC(=O)N1CCC(Oc2cc3c(Nc4ccc(Oc5ccnc(N6C[C@H]7COC[C@H]7C6)c5)cc4F)ncnc3cc2OC)CC1 [Compound 165, 1-(4-((4-((2-fluoro-4-((2-((3aR,6aS)-tetrahydro-1H-furo[3,4-c]pyrrol-5(3H)-yl)pyridin-4-yl)oxy)phenyl)amino)-7-methoxyquinazolin-6-yl)oxy)piperidin-1-yl)prop-2-en-1-one] | 300 to 600 nM | < 30 nM | < 30 nM | 30 to 60 nM | ≥ 1000 nM
